# Data as given in patent US8609332B2, “Assay” (Queen's University of Belfast, priority 2006, dated 2013).
# What was measured:
# [1] = at 50 μM; cited from earlier work
# [2] = test system: ser473 phosphorylated Akt; assay: AKT phosphorylation immunoblot; type: cell-based, rat
# Experimental: FIG. 5C Immunodetection and LY290042-inhibition of phosphorylated Akt in parental R37, R37-CMV, R37-OPN and R37-RAN cells. 20 μg cell lysates were loaded onto a SDS 10% (W(W) polyacrylamide gel as follows: lane 1 R37, lane 2 R37-pBk-CMV; lane 3 R37-RAN, lane 4 R37-OPN; lane 5 R37-OPN treated with 50 μm LY290042 for 18 hr (R37-OPN/LY); and lane 6 R37-RAN treated with 50 μm LY290042 for 18 hr (R37-RAN/LY). Proteins were detected in immunoblots using specific antibodies to phosphoserine 473 AkT. Bands were quantified using densitometric analysis and quantified with respect to those of β-actin. The results were a representative sample of three experiments. The average fold increase for 3 different experiments for phosphorylated AkT on ser473 is: lane 1=1, lane 2=2.2±0.4, lane 3=22.5±0.7, lane 4=21.1±0.5, lane 5=0±0 and lane 6=0±0.
# The R37, R37-CMV, R37-RAN and R37-OPN cells were harvested at 80% confluence from 7 cm dishes. The cell were lysed in 300 μl of 2× Loading buffer (20% glycerol (v/v), 4% SDS (w/v), 10% 2-mercaptoethanol (v/v), 126 mM Tris, pH 6.8 and coloured with bromophenol blue). The lysates were sonicated, boiled at 100° C. for 5 minutes and then centrifuged at 15000 rpm for 10 minutes. Proteins were resolved by 7.5% SDS-PAGE and immunoblofted for ser473 phosphorylated Akt.as previously (43).
smiles,measurement,setting,value
"O=c1cc(N2CCOCC2)oc2c(-c3ccccc3)cccc12 [LY294002, 2-4(4-morpholinyl)-8-phenyl-4H-1-benzopyran-4-one]",induction of apoptosis,[1],without inducing apoptosis
same,"phosphorylated AkT on ser473, average fold increase (R37 = 1)",[2]; R37-OPN cells treated with 50 μm for 18 hr (lane 5),0±0 fold
same,"phosphorylated AkT on ser473, average fold increase (R37 = 1)",[2]; R37-RAN cells treated with 50 μm for 18 hr (lane 6),0±0 fold
